# Assay results reported in ChEMBL document CHEMBL3044781, “Triterpenoid saponins with antifeedant activities from stem bark of Catunaregam spinosa (Rubiaceae) against Plutella xylostella (Plutellidae)” (2011).
# Tested on: Plutella xylostella
# Assay: Antifeedant activity against second-instar larval stage of Plutella xylostella (diamondback moth) in cabbage leaf disks assessed as consumed leaf area treated for 10 secs before larval infestation measured within 48 hr by non-choice leaf disc method
# Format: functional
row,Structure (SMILES),AFC50 [µg/mL]
1,CC1(C)CC[C@]2(C(=O)O[C@@H]3O[C@H](CO)[C@@H](O)[C@H](O)[C@H]3O)CC[C@]3(C)C(=CC[C@@H]4[C@@]5(C)CC[C@H](O[C@@H]6O[C@H](CO)[C@@H](O)[C@H](O[C@@H]7O[C@H](CO)[C@@H](O)[C@H](O)[C@H]7O)[C@H]6O[C@@H]6O[C@H](CO)[C@@H](O)[C@H](O)[C@H]6O)C(C)(C)[C@@H]5CC[C@]43C)[C@@H]2C1 [ARALIA-SAPONIN V],5467.82
2,CC1(C)CC[C@]2(C(=O)O[C@@H]3O[C@H](CO)[C@@H](O)[C@H](O)[C@H]3O)CC[C@]3(C)C(=CC[C@@H]4[C@@]5(C)CC[C@H](O[C@@H]6O[C@H](CO)[C@@H](O)[C@H](O[C@@H]7O[C@H](CO)[C@@H](O)[C@H](O)[C@H]7O)[C@H]6O[C@@H]6OC[C@@H](O)[C@H](O)[C@H]6O)C(C)(C)[C@@H]5CC[C@]43C)[C@@H]2C1 [ARALIASAPONIN IV],335.54
3,CC1(C)CC[C@]2(C(=O)O)CC[C@]3(C)C(=CC[C@@H]4[C@@]5(C)CC[C@H](O[C@@H]6O[C@H](CO)[C@@H](O)[C@H](O[C@@H]7O[C@H](CO)[C@@H](O)[C@H](O)[C@H]7O)[C@H]6O[C@@H]6OC[C@@H](O)[C@H](O)[C@H]6O)C(C)(C)[C@@H]5CC[C@]43C)[C@@H]2[C@@H]1O [CATUNAROSIDE A],243.23
4,C[C@@H]1O[C@@H](O[C@H]2[C@H](O[C@H]3CC[C@]4(C)[C@H]5CC=C6[C@@H]7CC(C)(C)CC[C@]7(C(=O)O)CC[C@@]6(C)[C@]5(C)CC[C@H]4C3(C)C)O[C@H](CO)[C@@H](O)[C@@H]2O[C@@H]2O[C@H](CO)[C@@H](O)[C@H](O)[C@H]2O)[C@H](O)[C@H](O)[C@H]1O [CATUNAROSIDE B],369.63
5,C[C@@H]1O[C@@H](O[C@H]2[C@H](O[C@H]3CC[C@]4(C)[C@H]5CC=C6[C@@H]7[C@H](O)C(C)(C)CC[C@]7(C(=O)O[C@@H]7O[C@H](CO)[C@@H](O)[C@H](O)[C@H]7O)CC[C@@]6(C)[C@]5(C)CC[C@H]4C3(C)C)O[C@H](CO)[C@@H](O)[C@@H]2O[C@@H]2O[C@H](CO)[C@@H](O)[C@H](O)[C@H]2O)[C@H](O)[C@H](O)[C@H]1O [CATUNAROSIDE C],946.13
6,CC1(C)CC[C@]2(C(=O)O[C@@H]3O[C@H](CO)[C@@H](O)[C@H](O)[C@H]3O)CC[C@]3(C)C(=CC[C@@H]4[C@@]5(C)CC[C@H](O[C@@H]6O[C@H](CO)[C@@H](O)[C@H](O[C@@H]7O[C@H](CO)[C@@H](O)[C@H](O)[C@H]7O)[C@H]6O[C@@H]6OC[C@@H](O)[C@H](O)[C@H]6O)C(C)(C)[C@@H]5CC[C@]43C)[C@@H]2[C@@H]1O [CATUNAROSIDE],608.42
7,CC1(C)CC[C@]2(C(=O)O)CC[C@]3(C)C(=CC[C@@H]4[C@@]5(C)CC[C@H](O[C@@H]6O[C@H](CO)[C@@H](O)[C@H](O[C@@H]7O[C@H](CO)[C@@H](O)[C@H](O)[C@H]7O)[C@H]6O[C@@H]6OC[C@@H](O)[C@H](O)[C@H]6O)C(C)(C)[C@@H]5CC[C@]43C)[C@@H]2C1 [SWARTZIATRIOSIDE],106.73
